Test results from publication PMC10821046, “Harmaline to Human Mitochondrial Caseinolytic Serine Protease Activation for Pediatric Diffuse Intrinsic Pontine Glioma Treatment” (Pharmaceuticals, 2024).

Key:
[1] = target: T1, hClpP (Homo sapiens, UniProt Q16740); assay: FITC-casein hClpP activity test; format: biochemical; details: 100 µM, normalized to 100 µM ONC201 activity
T1 construct: made in house; host or cells: E. coli BL21-CodonPlus (DE3)-RIL
Experimental: To assess the potency of the proteolytic activity of hClpP, a FITC–casein assay was performed. In a black, flat-bottom, 96-well plate, a 3 μM solution of purified hClpP in assay buffer (50 mM of HEPES, pH 7.5, 300 mM of KCl, 1 mM of DTT, 15% v/v glycerol; AB) preincubated at 37 °C for 15 min was added to 5 μL of the tested compounds in DMSO at different concentrations (ranging from 1 to 100 μM) and incubated for 15 min at 37 °C under shaking. As a control, three wells were filled with 5 µL of DMSO. The kinetic measurement was started after adding 2 µM of the fluorogenic peptides FITC and casein (Merck, C3777), used as hydrolytic substrates. The fluorescence of the cleaved FITC was recorded over 60 min at 37 °C on a Tecan Infinite M200 Pro (λex: 485 nm, emission λem: 535 nm, gain: 60). The slope in the linear range between 600 and 1800 s was determined and plotted against time. The EC50 for each tested compound was calculated using GraphPad Prism 7.05. Results are reported as the mean of two independent experiments performed in triplicate.

[2] = system: SU-DIPG-36 cells; assay: 2D cell viability assay (CCK8); format: cell-based, human; details: SU-DIPG-36, 100 µM, 72 h exposure
Experimental: (§1) Patient-derived diffuse intrinsic pontine glioma cell cultures (SU-DIPG-36, SU-DIPG-50) were provided by Dr Michelle Monje (Institutional Review Board (Stanford University) approval). The cells were cultured as a monolayer in media that was changed once a week at 37 °C in 5% CO2 by using Tumor Stem Media composed by: a 1:1 ratio of DMEM/F12 (Invitrogen)/Neurobasal (-A) (Invitrogen), B27 (-A) (Life Technologies, Milan, Italy), 20 ng/mL of human basic fibroblast growth factor (Life Technologies), 20 ng/mL of recombinant human epidermal growth factor (Life Technologies), 10 ng/mL of platelet-derived growth factor-AA, 10 ng/mL of platelet-derived growth factor-BB (Life Technologies), and 20 ng/mL of heparin (StemCell Technologies, Milan, Italy).
(§2) Then, 1 × 10^4 SU-DIPG-36 or SU-DIPG-50 cells/well in 100 µL of culture medium were seeded into 96-well plates and incubated O/N at 37 °C in CO2 (5%). […] Control wells with DMSO were used to evaluate the possible cytotoxicity of the solvent. […] Then, the absorbance was red (λ = 450 nm) with Tecan Infinite 200. GraphPad Prism allowed for the determination of IC50.

[3] = system: SU-DIPG-50 cells; assay: 2D cell viability assay (CCK8); format: cell-based, human; details: SU-DIPG-50, 100 µM, 72 h exposure
Experimental: as §1, §2

[4] = system: SH-SY-5Y spheroids; assay: 3D cell viability assay (CellTiter-Glo 3D, ATP); format: cell-based, human; details: 72 h; for viability at 100 µM: Homo sapiens, SH-SY5Y, ATP assay, mean ± SEM; for decrease in cell viability: SH-SY-5Y spheroids, highest concentration (100 µM)
[5] = system: SK-N-AS spheroids; assay: 3D cell viability assay (CellTiter-Glo 3D, ATP); format: cell-based, human; details: 72 h; for viability at 100 µM: Homo sapiens, SK-N-AS, ATP assay, mean ± SEM; for decrease in cell viability: SK-N-AS spheroids, highest concentration (100 µM)
[6] = target: T2, P-gp (Homo sapiens, UniProt P08183); assay: Calcein-AM experiment in MDCK-MDR1 cells; format: cell-based
T2 construct: expressed in transfected cells; host or cells: MDCK-MDR1
T2 sequence (P08183 whole entry): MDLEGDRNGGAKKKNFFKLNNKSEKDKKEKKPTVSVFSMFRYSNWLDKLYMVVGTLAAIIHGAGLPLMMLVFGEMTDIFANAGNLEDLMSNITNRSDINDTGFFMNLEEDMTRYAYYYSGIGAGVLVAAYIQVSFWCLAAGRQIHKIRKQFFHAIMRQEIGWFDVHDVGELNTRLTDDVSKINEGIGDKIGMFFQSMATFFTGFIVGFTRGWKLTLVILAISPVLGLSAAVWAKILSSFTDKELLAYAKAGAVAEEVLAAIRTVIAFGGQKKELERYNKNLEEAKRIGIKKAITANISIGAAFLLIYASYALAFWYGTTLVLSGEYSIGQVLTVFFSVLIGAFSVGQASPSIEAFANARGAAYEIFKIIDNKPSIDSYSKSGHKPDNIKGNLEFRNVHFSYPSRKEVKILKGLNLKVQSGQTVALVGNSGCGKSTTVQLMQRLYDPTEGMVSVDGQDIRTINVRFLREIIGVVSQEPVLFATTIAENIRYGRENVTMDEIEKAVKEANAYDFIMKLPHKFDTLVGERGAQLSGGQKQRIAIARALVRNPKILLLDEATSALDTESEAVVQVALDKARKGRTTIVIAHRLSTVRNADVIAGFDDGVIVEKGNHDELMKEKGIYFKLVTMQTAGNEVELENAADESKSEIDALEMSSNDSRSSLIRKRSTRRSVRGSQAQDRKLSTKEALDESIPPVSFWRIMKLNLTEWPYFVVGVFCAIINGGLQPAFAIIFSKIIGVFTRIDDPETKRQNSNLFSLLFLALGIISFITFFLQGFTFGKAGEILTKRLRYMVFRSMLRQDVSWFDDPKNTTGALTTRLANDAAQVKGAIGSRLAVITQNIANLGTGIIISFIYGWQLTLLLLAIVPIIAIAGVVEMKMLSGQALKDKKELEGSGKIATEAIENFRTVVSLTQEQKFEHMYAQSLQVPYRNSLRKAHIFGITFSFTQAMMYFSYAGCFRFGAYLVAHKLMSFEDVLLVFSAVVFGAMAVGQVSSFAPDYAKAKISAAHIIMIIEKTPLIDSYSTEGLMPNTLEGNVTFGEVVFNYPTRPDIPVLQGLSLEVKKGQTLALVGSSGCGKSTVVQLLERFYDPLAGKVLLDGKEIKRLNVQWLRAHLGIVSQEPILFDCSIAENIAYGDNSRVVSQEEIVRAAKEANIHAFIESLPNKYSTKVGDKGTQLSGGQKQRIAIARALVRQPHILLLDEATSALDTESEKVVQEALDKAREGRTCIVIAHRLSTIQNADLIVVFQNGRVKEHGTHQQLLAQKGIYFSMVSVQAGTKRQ
Experimental: Here, 3 × 10^4 MDCK-MDR1 cells/well were seeded (100 µL) in a black 96-well culture plate and incubated in CO2 (5%) at 37 °C O/N. The compounds to be tested were added at different concentrations (0.1–100 µM) in 100 µL of culture medium and then incubated for 30 min. […] The fluorescence of the wells containing the tested compounds was compared with that of those containing the untreated cells. The percentage of fluorescence as a function of log[dose] allowed the EC50 values to be determined.

[7] = Drug transport experiments, Caco-2 monolayer; format: in vitro ADME; details: human, 1 × 10^−4 M
Text: The experiment started with the preparation of the Caco-2 monolayer, which occurred by seeding the cells (20,000/well) in Millicell plates (Millipore, Milan, Italy). Its growth was followed for 21 days by changing the medium occasionally and measuring its transepithelial electrical resistance (TEER) daily using an epithelial voltohmmeter (Millicell-ERS) until at least […] was reached.
After 21 days, the plate was washed twice with Hank’s balanced salt solution (HBSS) (Invitrogen). After the second wash, the wells were filled with buffer, and the plate was kept at 37 °C for 30 min. After the incubation time, the HBSS buffer was replaced with the solutions of the compounds to be tested at a concentration of 1 × 10^−4 M. The plates were placed in an incubator at 37 °C for 120 min. The apparent permeability (Papp), in units of nm s^−1, was calculated.

[8] = target: T3, BCRP (Homo sapiens, UniProt Q9UNQ0); assay: Hoechst 33342 experiment in MDCK-BCRP cells; format: cell-based; details: Hoechst 33342, MDCK-BCRP cells
T3 construct: expressed in transfected cells; host or cells: MDCK-BCRP
T3 sequence (Q9UNQ0 1-655): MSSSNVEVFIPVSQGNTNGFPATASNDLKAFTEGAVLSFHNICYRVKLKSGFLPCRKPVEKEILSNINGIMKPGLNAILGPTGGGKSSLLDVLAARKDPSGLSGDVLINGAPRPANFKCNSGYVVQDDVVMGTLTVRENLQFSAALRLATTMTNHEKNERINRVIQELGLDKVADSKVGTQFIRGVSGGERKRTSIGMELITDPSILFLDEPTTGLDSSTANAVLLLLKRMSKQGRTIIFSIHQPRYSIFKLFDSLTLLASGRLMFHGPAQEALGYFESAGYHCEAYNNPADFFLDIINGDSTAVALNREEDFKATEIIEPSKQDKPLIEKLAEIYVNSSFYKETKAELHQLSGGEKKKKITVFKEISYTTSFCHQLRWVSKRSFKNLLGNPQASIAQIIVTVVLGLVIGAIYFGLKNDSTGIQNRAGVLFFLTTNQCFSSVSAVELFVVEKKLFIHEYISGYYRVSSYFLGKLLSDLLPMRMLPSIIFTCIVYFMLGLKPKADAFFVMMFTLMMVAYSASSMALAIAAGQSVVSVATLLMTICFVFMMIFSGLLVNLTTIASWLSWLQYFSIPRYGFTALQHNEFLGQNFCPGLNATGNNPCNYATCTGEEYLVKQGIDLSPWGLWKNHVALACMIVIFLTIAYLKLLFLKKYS
Experimental: Firstly, 3 × 10^4 MDCK-BCRP cells/well were seeded (100 µL) in a 96-well black culture plate and brought to O/N confluence in a 5% CO2 incubator at 37 °C. Different concentrations (0.1–100 µM) of the compounds in the culture medium (100 µL) to be tested were added, and the plate was incubated for 30 min. […] The supernatant was aspirated, and the cells were fixed for 20 min with 4% PFA (100 µL), protecting them from light. Three washes with ice-cold PBS and three washes with saline buffer followed, and then the plate was analyzed (λex 350 nm and λem 460 nm) by Victor3 (PerkinElmer). EC50 values were calculated from the percentage increase in fluorescence compared to log[dose].

T1 sequence (Q16740 with tags, fused parts or gaps): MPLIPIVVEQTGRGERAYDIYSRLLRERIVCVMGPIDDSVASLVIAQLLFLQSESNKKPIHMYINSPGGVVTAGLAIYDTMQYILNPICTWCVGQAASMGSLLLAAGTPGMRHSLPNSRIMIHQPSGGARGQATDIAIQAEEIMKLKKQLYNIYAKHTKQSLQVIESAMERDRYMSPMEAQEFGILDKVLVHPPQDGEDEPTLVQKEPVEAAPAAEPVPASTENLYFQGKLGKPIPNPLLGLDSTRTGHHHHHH

| SMILES | activation of hClpP [1] [%] | cancer cell death (cytotoxic effect) [2] [%] | cancer cell death (cytotoxic effect) [3] [%] | viability at 100 µM [4] [%] | decrease in cell viability [4] | viability at 100 µM [5] [%] | decrease in cell viability [5] | EC50 [6] [µM] | Papp A→B at 120 min ([7]; Caco-2, apical-basolateral) [×10⁻⁶ cm/s] | Papp B→A at 120 min ([7]; Caco-2, basolateral-apical) [×10⁻⁶ cm/s] | EC50 [8] [µM] |
| --- | --- | --- | --- | --- | --- | --- | --- | --- | --- | --- | --- |
| COc1ccc2c3c([nH]c2c1)C(C)=NCC3 [Harmaline, 7-methoxy-1-methyl-4,9-dihydro-3H-pyrido[3,4-b]indole] | 28 | 34 | 50 | 67.5 ± 13.9 | ~ 32.5% | 44.2 ± 24.2 | ~ 56% | > 100 | 49.6 | 254 | 14.9 |
| Cc1ccccc1CN1C(=O)C2=C(CCN(Cc3ccccc3)C2)N2CCN=C12 [ONC201, reference compound] |  | 83 | 70 | 13.7 ± 6.23 | ~ 85% | 17.5 ± 6.8 | ~ 85% | 13.4 |  |  |  |
